Experimental findings from patent publication US9789101B2, “Methods and compositions for treating microbial infection using pyrroloquinone” (HELPERBY THERAPEUTICS LIMITED, priority 2010, dated 2017) are described below.

Where a name gives a salt, the structure may show the parent alone. Read-outs that look alike come from different tables or passages of the source.

The test system of assay [1] is stationary phase Staphylococcus aureus. The assay can be described thus: In vitro efficacy test against stationary phase Staphylococcus aureus (CFU counts). It is filed as cell-based, Staphylococcus aureus (Oxford). The protocol: (§1) Staphylococcus aureus (Oxford); Gram positive; Reference strain.
Stationary phase growth of methicilin sensitive Staphylococcus aureus (MSSA) was carried out as follows:
Subculture of the bacterial strains on agar plates: Overnight S. aureus bacterial cultures were stored at −70° C. with 20% glycerol (cryoprotectant). A loopful of the frozen cells was streaked on a blood agar plate which was incubated at 37° C. overnight (or longer) as culture plate A. A single colony of each strain from the culture plate A was streaked on the blood agar plate which was incubated at 37° C. overnight (or longer) as culture plate B. The culture plate B was stored at 4° C. for a week and served as the initial inoculation plate.
Bacterial growth in broth culture: A single colony from culture plate B was inoculated in 10 ml of nutrient broth (No. 2, (Oxoid)), which was incubated overnight at 37° C. with continuous shaking at 120 rpm. 200 μl of the overnight culture was added into a 500 ml bottle containing 100 ml of nutrient broth. The 100 ml culture was incubated at 37° C. with continuous shaking for 6 to 7 days. Viability of the cultures is estimated by colony forming unit (CFU) counts at 2 hour intervals for the first 24 hours and 12 to 24 hours afterwards.
Colony Forming Unit (CFU) counts were performed as follows: From serial 10-fold dilutions of the cultures, 100 μl samples were added to one third of blood agar plates (Oxoid) in triplicate. CFUs were counted using an aCoLyte colony counter (Synbiosis) after incubation of the plates at 37° C. for 24 hours or longer.
7 day old stationary phase cultures were used. The stationary phase cultures were diluted to obtain CFU counts in the cell suspension of 10^6 to 10^7 CFU/ml. The cell suspension was used to test drug sensitivity.
(§2) HT61 was dissolved in DMSO to the stock concentration of 10 mg/ml.
HT00800059 was dissolved in H2O to the stock solution 10 mg/ml
The drugs were first diluted as follows: • 7.2 μl of HT61 at 10 mg/ml was added into 292.8 μl of H2O followed by diluting 2 fold, 3 times. • 57.6 μl of HT00800059 at 10 mg/ml was added into 242.4 μl of H2O followed by diluting 2 fold, 2 times. • 10 μl of HT00800059 from each dilution was added into the wells of a 96 well plate followed by the addition of 290 μl of bacterial cell suspension to make the final concentrations of HT00800059 at 64, 32 and 0 μg/ml. • […]
In combination of two drugs: 10 μl of HT61 from each dilution was added into the wells of a 96 well plate followed by the addition of 10 μl of HT00800059 from each dilution. […]

Assay [2] relates to log phase Staphylococcus aureus. The assay can be described thus: Chequerboard analysis of HT00800059 and HT61 against log phase Staphylococcus aureus. It is filed as cell-based, Staphylococcus aureus (Oxford). The method, then:
as §1
Log phase growth of methicilin sensitive Staphylococcus aureus (MSSA) was carried out as follows: • Bacteria were grown in 10 ml of nutrient broth (No. 2, (Oxoid)) overnight at 37° C. with continuous shaking at 120 rpm. The overnight cultures were diluted 1000× with iso-sensitest broth. The cultures were incubated at 37° C. with shaking for 1-2 hours to reach log CFU 6. Viability of the bacteria was estimated by colony forming unit (CFU) counts. From serial 10-fold dilutions of the experimental cultures, 100 μl samples were added to triplicate plates of nutrient agar plates (Oxoid) or blood agar plates (Oxoid). CFUs were counted after incubation of the plates at 37° C. for 24 hours.
Bacterial cultures: 10 μl of overnight cultures was added to 10 ml of fresh iso-sensitest broth to make the inoculation to 10^6 CFU/ml. 290 μl of the cell suspension was added to each well of the 96 well plate, which was incubated at 37° C. for 24 hours. 300 μl of iso-sensitest broth without bacterial cells were added to wells of the plate as a no bacterial control.
MIC determination: The optical density of the bacterial cells was read at 405 nm using a plate reader (Bio TEK). The MIC concentration was determined as the lowest concentration of drug which inhibits the bacterial growth.
as §2
HT00800059 was dissolved in H2O to the stock solution 30.07 mg/ml.
The drugs were first diluted as follows: • 28.8 μl of HT61 at 10 mg/ml was added into 271.2 μl of H2O followed by diluting 2 fold for 6 times.
Both drugs were mixed as following pattern: 10 μl of HT00800059 from each dilution was added into the wells of a 96 well plate from top to bottom and 10 μl of HT61 from each dilution was added to the same 96 well plate from left to right. After addition of 280 μl log phase cell suspension, the final concentrations of drugs for each well in the 96 well plate are shown in the table below.
Incubation of the compounds with the bacterial suspension was carried out for 24 hours. The kill effect of the drug combination and signal drug MIC was measured by optical density reading at 405 nm with a plate reader (Bio TEK). The MIC concentration was determined as the lowest concentration of drug which inhibits the bacterial growth.
The fractional inhibitory concentration (FIC) index was carried out as follows: (MIC of drug A, tested in combination)/(MIC of drug A, tested alone)+(MIC of drug B, tested in combination)/(MIC of drug B, tested alone). The interaction was defined as synergistic if the FIC index was <1, additive if the FIC index was =1 and antagonistic if the FIC index was >1.

Assay [3] concerns clinically latent microorganisms. The assay can be described thus: Screening for ability to kill clinically latent microorganisms (method of WO2000028074). It is filed as cell-based. The settings on record: observed by the Applicant. From the text: International Patent Application, Publication Number WO2000028074 describes a method of screening compounds to determine their ability to kill clinically latent microorganisms. […] This observation has necessitated the development of novel antimicrobials which may be used to kill clinically latent microorganisms.
By way of example, WO2000028074 describes a suitable method of screening compounds to determine their ability to kill clinically latent microorganisms. A typical method may include the following steps: • (1) growing a bacterial culture to stationery phase; • (2) treating the stationery phase culture with one or more antimicrobial agents at a concentration and or time sufficient to kill growing bacteria, thereby selecting a phenotypically resistant sub-population; • (3) incubating a sample of the phenotypically resistant subpopulation with one or more test compounds or agents; and • (4) assessing any antimicrobial effects against the phenotypically resistant subpopulation.

As for `CCCCOc1ccc(C(=O)CCN2CCCCC2)cc1` [HT00800059, dyclonine (1-(4-Butoxyphenyl)-3-(1-piperidinyl)-1-propanone) hydrochloride], the CFU killed entry is reported as “about 10^4 CFU” in assay [1] (32 μg/ml, over 8 hours) and “about 10^7 CFU” in assay [1] (64 μg/ml, over 6 hours). The MIC came to 512 µg/mL in assay [2] (Staphylococcus aureus); 512 µg/mL in assay [2] (Staphylococcus aureus, read-out: alone MIC); 128 µg/mL in assay [2] (Staphylococcus aureus, with HT61 4 μg/ml, Plate 1, read-out: MIC of HT00800059 + HT61); 512 µg/mL in assay [2] (drug alone, Plate 2). The “HT00800059 MIC in combination” value in assay [2] (with HT61 4 μg/ml) worked out at 128 µg/mL. Further, the “MIC of HT00800059 + HT61” value in assay [2] (with HT61 4 μg/ml, Plate 2) worked out at 128 µg/mL.
Regarding `C/C(=C\C(=O)OCCCCCCCCC(=O)O)C[C@@H]1OC[C@H](C[C@@H]2O[C@H]2[C@@H](C)[C@H](C)O)[C@@H](O)[C@H]1O` [Mupirocin], the “activity against clinically latent microorganisms” value in assay [3] is “little or no activity”.

One may read the MIC as the smallest concentration in the dilution series that meets the test's criterion for growth inhibition.
